In US20040053857A1, “Glycoalkaloid compositions and various uses thereof” (priority 2002, published 2004):

Experiments:
Assay type in all cases: cell-based
[1] = tested on: NHRE fibroblast cell line; assay: Dose per cell at LD50, 2500 cell 3 day assay; settings: NHRE normal cells, 2500 cells, dose per cell limiting
From the text: (§1) Tumour cell lines A2058, NO36 and LS174T and the normal adult dermal fibroblast line NHDF-Ad were used in 5000 cell, six day assays to compare dose per cell at LD50 values for BEC (1:1 solamargine:solasonine), solamargine, solasonine and an equimolar mixture of solamargine and solasonine. Data from the fibroblast cell line NHRE in a 2500 cell 3 day assay was also obtained.

786-O tumour cell line [2] = assay: Dose per cell at LD50, 5000 cell three day format (dose per cell limiting); settings: 5000 cells
From the text: (§2) Tumour cell line LNCaP was used at 7500 cells in a six day assay format while 786-O was used in a 650 cell, six day format where dose per cell is not a limiting factor determining LD50 as well as in 5000 cell, three day format where dose per cell does limit LD50.

LNCaP tumour cell line = assay: Dose per cell at LD50, 7500 cell six day assay; settings: 7500 cells, dose per cell limiting
From the text: as §2

786-O tumour cell line [3] = assay: Dose per cell at LD50, 650 cell six day format (dose per cell not limiting); settings: 650 cells
From the text: as §2

LS174T tumour cell line = assay: Dose per cell at LD50, 5000 cell six day assay; settings: 5000 cells, dose per cell limiting
From the text: as §1

A2058 tumour cell line = assay: Dose per cell at LD50, 5000 cell six day assay; settings: A2058, 5000 cells, dose per cell limiting
From the text: as §1

[4] = tested on: NHDF-Ad normal adult dermal fibroblast line; assay: Dose per cell at LD50, 5000 cell six day assay; settings: NHDF-Ad normal cells, 5000 cells, dose per cell limiting
From the text: as §1

NO36 tumour cell line [5] = assay: Dose per cell at LD50, 5000 cell six day assay; settings: NO36, 5000 cells, dose per cell limiting
From the text: as §1

[6] = tested on: NHDF-Ad normal fibroblasts; assay: Effect of solamargine:solasonine ratio on cytotoxicity, MTT cell proliferation assay; settings: 6 day assay, 5000 cells
Description: (§3) Tumour cell lines 786-O and NO36 and normal fibroblasts NHDF-Ad were used in 5000 cell assays, for three, six and six day assays, respectively, to study the effect of solamargine:solasonine ratio on cytotoxicity.
(§4) Solutions of 4 mg/mL solamargine and 4 mg/mL solasonine in 3% acetic acid were mixed to provide the various ratios. These mixtures were diluted in the culture medium appropriate to the cell line used to concentrations ranging from 0.32 to 40 ug/mL. Fifty uL aliquots were added to tissue culture wells seeded with 5000 cells in 150 uL culture medium 24 hours previously.
(§5) Cell survival was assessed using the MTT cell proliferation assay following four days growth after application of the alkaloids. The formazan absorbance of alkaloid treated wells relative to wells treated with an equivalently dilute acetic acid solution expressed as a percentage has been taken as percentage cell survival.

NO36 tumour cell line [7] = assay: as above; settings: NO36, 6 day assay, 5000 cells
Description: as §3, §4, §5

786-O tumour cell line [8] = assay: as above; settings: 3 day assay, 5000 cells
Description: as §3, §4, §5

SMILES | Dose per cell at LD50, pg/cell of total alkaloid [1] | Dose per cell at LD50, pg/cell of total alkaloid (786-O tumour cell line [2]) | Dose per cell at LD50, pg/cell of total alkaloid (LNCaP tumour cell line) | Dose per cell at LD50, pg/cell of total alkaloid (786-O tumour cell line [3]) | Dose per cell at LD50, pg/cell of total alkaloid (LS174T tumour cell line) | Dose per cell at LD50, pg/cell of total alkaloid (A2058 tumour cell line) | Dose per cell at LD50, pg/cell of total alkaloid [4] | Dose per cell at LD50, pg/cell of total alkaloid (NO36 tumour cell line [5]) | Dose per cell at LD50, [6] | Dose per cell at LD50, (NO36 tumour cell line [7]) | Dose per cell at LD50, (786-O tumour cell line [8])
C[C@@H]1CC[C@@]2(NC1)O[C@H]1C[C@H]3[C@@H]4CC=C5C[C@@H](O[C@@H]6O[C@H](CO)[C@H](O)[C@H](O[C@@H]7O[C@H](CO)[C@@H](O)[C@H](O)[C@H]7O)[C@H]6O[C@@H]6O[C@@H](C)[C@H](O)[C@@H](O)[C@H]6O)CC[C@]5(C)[C@H]4CC[C@]3(C)[C@H]1[C@@H]2C [Solasonine, solasonine] | 1657.7 pg/cell | >400 pg/cell | 432.5 pg/cell | 5606.0 pg/cell | >400 pg/cell | 685 pg/cell | 587.6 pg/cell | 613.2 pg/cell | 400 pg | 613 pg | 500 pg
C[C@@H]1CC[C@@]2(NC1)O[C@H]1C[C@H]3[C@@H]4CC=C5C[C@@H](O[C@@H]6O[C@H](CO)[C@@H](O[C@@H]7O[C@@H](C)[C@H](O)[C@@H](O)[C@H]7O)[C@H](O)[C@H]6O[C@@H]6O[C@@H](C)[C@H](O)[C@@H](O)[C@H]6O)CC[C@]5(C)[C@H]4CC[C@]3(C)[C@H]1[C@@H]2C [Solamargine, solamargine] | 227.9 pg/cell | 208.0 pg/cell | 121.9 pg/cell | 1394.0 pg/cell | 162.8 pg/cell | 199.0 pg/cell | 209.2 pg/cell | 154.8 pg/cell | 112 pg | 209 pg | 304 pg
